Test results: patent US20100261753A1, “METHODS FOR PREVENTING AND/OR TREATING DEGENERATIVE DISORDERS OF THE CENTRAL NERVOUS SYSTEM” (AMICUS THERAPEUTICS, INC., priority 2009, published 2010)
Changes are numbered by the printed parent chain. Values joined by “and” are separate entries in the source; they are usually repeats but may differ in a detail not shown here. Identical values can stand only once. Counter-ions that a name gives are not always drawn. Like-named read-outs stand apart in the source and are kept apart here.

How the values were obtained:
[1] = target: T1, recombinant human GCase (rhGCase; Cerezyme) (Homo sapiens, UniProt P04062, R534H); experiment: In vitro enzyme inhibition assay of rhGCase with 4-MU-β-D-Glc substrate; format: biochemical; settings: for Ki: from IC50 by Cheng-Prusoff equation
T1 construct: purchased Genzyme Corp
T1 sequence (P04062 40-536 R534H): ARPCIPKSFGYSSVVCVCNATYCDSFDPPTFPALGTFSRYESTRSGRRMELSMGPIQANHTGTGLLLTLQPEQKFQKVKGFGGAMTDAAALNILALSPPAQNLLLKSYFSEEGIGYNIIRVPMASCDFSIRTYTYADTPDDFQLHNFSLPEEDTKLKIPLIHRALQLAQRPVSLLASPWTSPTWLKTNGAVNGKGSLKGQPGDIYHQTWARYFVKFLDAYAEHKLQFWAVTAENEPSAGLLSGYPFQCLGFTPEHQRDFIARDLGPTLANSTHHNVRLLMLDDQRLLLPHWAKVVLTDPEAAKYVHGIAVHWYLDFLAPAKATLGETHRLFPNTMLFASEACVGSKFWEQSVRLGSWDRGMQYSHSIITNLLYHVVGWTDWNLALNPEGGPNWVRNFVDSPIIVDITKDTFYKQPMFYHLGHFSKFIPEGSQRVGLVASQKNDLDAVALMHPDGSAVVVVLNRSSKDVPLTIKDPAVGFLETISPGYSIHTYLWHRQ
Procedure: The binding affinity (defined here by Ki binding constant) of GCase for small molecule pharmacological chaperones described in this document were empirically determined using enzyme inhibition assays. In brief, the enzyme inhibition assays used monitored the ability of test compound to bind and prevent the hydrolysis of a fluorogenic substrate in a concentration-dependent manner. Specifically, the enzyme activity of recombinant human GCase (rhGCase; Cerezyme®, Genzyme Corp.) was measured using the 4-methylumbelliferyl-β-D-glucopyranoside (4-MU-β-D-Glc) fluorogenic substrate in the absence or in the presence of varying amounts of each test compound. […] The enzyme inhibition assays were performed at both pH 7.0 (endoplasmic reticulum pH) and at pH 5.2 (lysosomal pH) to gain insight into the binding affinity (i.e., potency) of compounds for GCase in the endoplasmic reticulum and lysososome.
Enzyme (Cerezyme®, a recombinant form of the human enzyme β-glucocerebrosidase) was also diluted in the same buffer “M” at pH 7.0 and pH 5.2. […] Five μl of diluted enzyme was added to 15 μl of the various inhibitor concentrations or buffer “M” alone and incubated at 37° C. for 1 hour with 50 μl of the substrate preparation to assess β-glucosidase activity at pH 7.0 and pH 5.2.

[2] = Blood brain barrier penetration after a single p.o. dose in mice; format: in vivo, mice (C57BL/6); settings: single 30 mg/kg (free base equivalent) p.o.
Procedure: For this purpose, 8-week old wild-type male mice (C57BL/6) were administered a single 30 mg/kg (free base equivalent) p.o. dose of reference or test compound by gavage (n=3 mice per time point). Dosing solutions were prepared in water. After dosing, mice were euthanized with CO2 at the following time points: 0-, 0.5-, 1-, and 4-hour post-dose. […] Similarly, brains were collected from each mouse. Plasma was derived by spinning whole blood at 2700 g for 10 minutes at 4° C. followed by storage on dry ice. Whole brains were washed in cold PBS to remove contaminating blood, blotted dry, flash frozen on dry ice, and ultimately stored at −80° C. until analysis. To prepare brain samples for analysis, 50-100 mg of tissue was homogenized in […]. Samples were then clarified by centrifugation. Next, 25 μl of the brain homogenate supernatant or 25 μl of plasma were combined with 25 μl of acetonitrile:water (95/5). […] Between 20 and 30 μl sample was injected for analysis. […] When Compound B was analyzed, Compound A was used as internal standard (150.1/130.1). For calculating drug concentrations, raw data for plasma (ng/mL) and brain (ng/g) was converted to nM using the molecular weight of respective compounds and assuming 1 g of tissue is equivalent to 1 mL volume. Concentration as a function of time was plotted in GraphPad Prism version 4.02.

Rat pharmacokinetics = format: in vivo, Sprague-Dawley rats
Procedure: Pharmacokinetic (PK) data was obtained in rats to assess the bioavailability of test compound. In particular, the following PK parameters were calculated: bioavailability as measured by area under the Concentration/Time curve (AUC), fraction of dose available (% F; further defined below), clearance (CL), volume of distribution (Vd), and half-life (t½). For this purpose, 8-week old Sprague-Dawley male rats were given either a single intravenous (IV) dose equivalent to 3 mg/kg of free base or single escalating p.o. (gavage) doses of test compound equivalent to 10, 30, and 100 mg/kg of free base. Three rats were used per dosing group. Blood was collected over a 24-hr period. The time points for blood collection after intravenous administration were: 0, 2.5, 5, 10, 15, 30, 45 min, 1, 2, 4, 8, 12, and 24 hrs; time points for blood collection after p.o. administrations were: 0, 5, 15, 30, 45 min, 1, 2, 3, 4, 8, 12, and 24 hrs. Plasma samples were analyzed for compound levels by LC-MS/MS at PPD. Raw data was analyzed by non-compartmental analysis in Win-nonLin to calculate Vd, % F, CL, and […].

GCase = target: T2, GCase (Homo sapiens, UniProt P04062); experiment: GCase activity enhancement (EC50, Emax; Table 2B); format: cell-based
T2 sequence (P04062 40-536): T1 sequence (P04062 40-536 R534H) with H495R

[3] = male, Sprague-Dawley, plasma, IV, 3 mg/kg free base
[4] = pH 7 (endoplasmic reticulum pH), read-out: IC50 pH 7

O[C@@H]1CNCC(CF)[C@H]1O (stereo in doubt) [Compound A, (3R,4R,5R)-5-(fluoromethyl)piperidine-3,4-diol]
IC50 ([1]; pH 5.2, average of three independent experiments, Table 3A, read-out: IC50 pH 5.2): 10 ± 1 nM | IC50 ([1]; pH 5.2, average of three independent experiments, Table 3B, read-out: IC50 pH 5.2): 10 ± 1 nM | blood brain barrier crossing ([2]; compared to IFG): crossed the blood brain barrier more readily as compared to IFG | CL (Rat pharmacokinetics; PO, 30 mg/kg free base): 66.82 ± 8.48 mL/min/kg | VD (Rat pharmacokinetics; PO, 30 mg/kg free base): 13.532 ± 3.291 L/kg | CL (Rat pharmacokinetics; PO, 100 mg/kg free base): 56.55 ± 3.48 mL/min/kg | VD (Rat pharmacokinetics; PO, 100 mg/kg free base): 13.101 ± 1.518 L/kg | Cmax (Rat pharmacokinetics; [3]): 7270 ± 139 ng/mL | Vd (Rat pharmacokinetics; [3]): 3.48 ± 0.232 L/kg | clearance (Rat pharmacokinetics; [3]): 27.8 mL/min/kg | AUC(0-t) (Rat pharmacokinetics; male, Sprague-Dawley, plasma, IV, 3 mg/kg free base (3.72 mg/kg salt)): 1800 ± 42.7 ng·h/mL | half-life (Rat pharmacokinetics; male, Sprague-Dawley, plasma, IV, 3 mg/kg free base, read-out: t1/2 (converted)): 1.4 ± 0.1 h | Cmax (Rat pharmacokinetics; male, Sprague-Dawley, plasma, PO, 10 mg/kg free base): 1290 ± 271 ng/mL | AUC(0-t) (Rat pharmacokinetics; male, Sprague-Dawley, plasma, PO, 10 mg/kg free base (12.4 mg/kg salt)): 2980 ± 228 ng·h/mL | bioavailability (Rat pharmacokinetics; male, Sprague-Dawley, plasma, PO, 10 mg/kg free base, read-out: % F): 50 ± 3.8% | half-life (Rat pharmacokinetics; male, Sprague-Dawley, plasma, PO, 10 mg/kg free base, read-out: t1/2 (converted)): 1.2 ± 0.4 h | Cmax (Rat pharmacokinetics; male, Sprague-Dawley, plasma, PO, 30 mg/kg free base): 2870 ± 355 ng/mL | AUC(0-t) (Rat pharmacokinetics; male, Sprague-Dawley, plasma, PO, 30 mg/kg free base (37.2 mg/kg salt)): 8250 ± 388 ng·h/mL | bioavailability (Rat pharmacokinetics; male, Sprague-Dawley, plasma, PO, 30 mg/kg free base, read-out: % F): 46 ± 2.5% | half-life (Rat pharmacokinetics; male, Sprague-Dawley, plasma, PO, 30 mg/kg free base, read-out: t1/2 (converted)): 2.3 ± 0.3 h | Cmax (Rat pharmacokinetics; male, Sprague-Dawley, plasma, PO, 100 mg/kg free base): 9390 ± 742 ng/mL | AUC(0-t) (Rat pharmacokinetics; male, Sprague-Dawley, plasma, PO, 100 mg/kg free base (124 mg/kg salt)): 29600 ± 1750 ng·h/mL | bioavailability (Rat pharmacokinetics; male, Sprague-Dawley, plasma, PO, 100 mg/kg free base, read-out: % F): 49 ± 2.7% | half-life (Rat pharmacokinetics; male, Sprague-Dawley, plasma, PO, 100 mg/kg free base, read-out: t1/2 (converted)): 2.6 ± 0.1 h

O[C@@H]1CNCC(CF)[C@H]1O (stereo in doubt) [Compound A-HCl, (3R,4R,5R)-5-(fluoromethyl)piperidine-3,4-diol hydrochloride]
effect on GCase activity (GCase): concentration-dependent increase in GCase activity | enhancement of enzyme activity compared to IFG-tartrate (GCase): enhanced enzyme activity to the same maximum level at much lower concentration | Ki ([1]; pH 5.2, read-out: Ki pH 5.2): 6 nM | IC50 [1, 4]: 6 nM and 7 nM | Ki ([1]; pH 7, read-out: Ki pH 7): 3 nM and 4 nM | bioavailability (Rat pharmacokinetics; male, Sprague-Dawley, plasma, po, read-out: oral bioavailability): ~50% | half-life (Rat pharmacokinetics; male, Sprague-Dawley, plasma, read-out: half-life): 1 to 2.5 h

O[C@@H]1[C@@H](CCl)CNC[C@H]1O [Compound B, (3R,4R,5S)-5-(chloromethyl)piperidine-3,4-diol]
EC50 (GCase): 9.6 ± 1 nM | Emax (GCase): 104 ± 3.4% | effect on GCase activity (GCase): concentration-dependent increase in GCase activity | enhancement of enzyme activity compared to IFG-tartrate (GCase): enhanced enzyme activity to the same maximum level at much lower concentration | IC50 ([1]; pH 5.2, average of three independent experiments, Table 4A, read-out: IC50 pH 5.2): 73 ± 9 nM | IC50 ([1]; pH 5.2, average of three independent experiments, Table 4B, read-out: IC50 pH 5.2): 73 ± 9 nM | Ki ([1]; pH 5.2, read-out: Ki pH 5.2): 384 ± 2.1 nM | IC50 [1, 4]: 9.8 ± 0.5 nM | Ki ([1]; pH 7, read-out: Ki pH 7): 5.1 ± 0.3 nM | brain levels ([2]; compared to hydrochloride salt form of Compound A): even higher levels of Compound B were detected in brain
